Experimental data from publication PMC10947119 (Angewandte Chemie (International Ed. in English), 2023).
Where two headings read alike, the source gives them in different places.

Key:
[1] = system: coaBC CRISPRi knockdown Mtb mutant (Mtb H37RvMA); format: cell-based, Mycobacterium tuberculosis; settings: highest ATc concentrations compatible with uninhibited proliferation
[2] = system: coaD CRISPRi knockdown Mtb mutant (Mtb H37RvMA); format: cell-based, Mycobacterium tuberculosis

| Compound | Effect of ATc (coaBC silencing) on susceptibility [1] | minimum inhibitory concentration, MIC [2] | Effect of ATc (coaD silencing) on susceptibility ([2]; 1.6 and 0.8 ng/mL ATc) | Effect of ATc (coaD silencing) on susceptibility [2] |
| --- | --- | --- | --- | --- |
| O=C(O)c1cnn(-c2ccccc2)c1OCCCc1c[nH]c2ccccc12 [compound 20] | little‐to‐no effect | ≈ 60 μM | enhanced in an ATc concentration‐dependent manner | – |
| NNC(=O)c1ccncc1 [isoniazid, reference compound] | – | – | – | did not render the coaD CRISPRi Mtb mutant more susceptible |
| CO[C@H]1/C=C/O[C@@]2(C)Oc3c(C)c(O)c4c(O)c(c(/C=N/N5CCN(C)CC5)c(O)c4c3C2=O)NC(=O)/C(C)=C\C=C\[C@H](C)[C@H](O)[C@@H](C)[C@@H](O)[C@@H](C)[C@H](OC(C)=O)[C@@H]1C [rifampicin, reference compound] | – | – | – | did not render the coaD CRISPRi Mtb mutant more susceptible |
